Here are results for 7 molecules from patent publication US12384816B2, “Blood-brain barrier permeable peptide” (NATIONAL UNIVERSITY CORPORATION KUMAMOTO UNIVERSITY, priority 2018, dated 2025).

Common to all, as to format: cell-based, human
Data set [1] has as its system hCMEC/D3 cells. Briefly: Influence of ligands on hCMEC/D3 permeation of SLS-phage. The method, then:
Using the hCMEC/D3 cells, influences by various ligands (vitronectin, fibrinogen, RGD peptide, transferrin) on the BBB permeability of the phage presenting the peptide SLSHSPQ (SEQ ID NO: 1) of the present invention were tested.
In the +vitronectin group, human vitronectin (R&D Systems, Inc.) was added to give 20 μg/mL. In the +fibrinogen group, human fibrinogen (Wako) was added to give 50 μg/mL. In the +RGD group, an RGD peptide (SIGMA) was added to give 100 μM. In the +holo-Tf (transferrin) group, holo-Tf (SIGMA) was added to give 100 μM.

In data set [2] the test system is hCMEC/D3 cells. Nature of the data set: Influence of monensin on hCMEC/D3 permeation of SLS-phage. The note with it: monensin-containing medium for 18 hours, concentration-dependent. The method, then: The medium at the luminal side and the abluminal side was replaced by a monensin-containing medium, and culture was further performed for 18 hours.
Data set [3] has as its system hCMEC/D3 cells. Briefly: Influence on tight junction (TEER) of hCMEC/D3 cells. The note with it: 0 to 100 μM, until 48 hours. The method, then: The synthetic cyclic peptide SLSHSPQ (SEQ ID NO: 1) (0 to 100 μM) before labeling prepared in Example 3 was added to the cells, and they were incubated in a CO2 incubator at 37° C. The influence on tight junction was evaluated by measuring TEER over time until 48 hours later.

Data set [4] relates to hCMEC/D3 cells. Briefly: Cytotoxicity (cell counting kit-8) in hCMEC/D3 cells. The note with it: 0 to 100 μM, 24 and 48 hours. As for the experimental part: The synthetic cyclic peptide SLSHSPQ (SEQ ID NO: 1) (0 to 100 μM) was added to the cells, and incubated in a CO2 incubator at 37° C. The cell viability after 24 and 48 hours was calculated using the cell counting kit-8.
A general note: Tetrazolium dyes change colour on reduction, which living cells bring about.

For data set [5], the system named is hCMEC/D3 cells. Nature of the data set: Uptake of FAM-labeled cyclic peptide into hCMEC/D3 cells (confocal microscopy). Particulars: 10 µM, 37° C., 10, 30 and 60 minutes. As for the experimental part: A FAM-labeled synthetic cyclic peptide having the SLSHSPQ (SEQ ID NO: 1) sequence was prepared by requesting Scrum Co., Ltd. A peptide having the sequence of […] (SEQ ID NO: 5), which contains […] (SEQ ID NO: 6), was chemically synthesized, and then a cyclic peptide was formed by forming a disulfide bond between the cysteine residues. Then, a lysine residue was added to the C-terminal and FAM was further bonded to prepare a FAM-labeled cyclic peptide.
The FAM-labeled synthetic cyclic peptide SLSHSPQ (SEQ ID NO: 1) (10 µM) was added to the cells, and incubated on a 37° C. hot plate for 10, 30 and 60 minutes. These were washed with 500 μL of cold PBS three times, and fixed with 4% PFA for 10 minutes. […] (registered trademark) Mounting Medium with DAPI was dropped, then, a cover glass was place thereon to enclose it, and FAM and DAPI were observed by a confocal microscopy. […] From this, it was confirmed that the synthetic cyclic peptide SLSHSPQ (SEQ ID NO: 1) is internalized in the cell.

Positions of bridges follow the written chain, without caps; N, C: chain ends. Residues, ends and D or L forms follow the SMILES beside them.

On to holo-transferrin, for which the “effect on permeation of the SLS-phage” value in the data set with hCMEC/D3 cells [1] (ligand 100 μM) was “promoted”.

RGD peptide: the “effect on permeation of the SLS-phage” value in the data set on hCMEC/D3 cells [1] (ligand 100 μM) was “did not inhibit”.

On to `CC[C@@]1([C@@H]2O[C@@H]([C@H]3O[C@@](O)(CO)[C@H](C)C[C@@H]3C)C[C@@H]2C)CC[C@H]([C@]2(C)CC[C@]3(C[C@H](O)[C@@H](C)[C@@H]([C@@H](C)[C@@H](OC)[C@H](C)C(=O)O)O3)O2)O1` [monensin], for which the “effect on hCMEC/D3 cell permeation amount of the SLS-phage” value in the data set on hCMEC/D3 cells [2] is “increased”.

As to fibrinogen, the “effect on permeation of the SLS-phage” value with hCMEC/D3 cells [1] (human fibrinogen 50 μg/mL) is “did not inhibit”.

For the molecule `CC(C)C[C@@H]1NC(=O)[C@H](CO)NC(=O)[C@@H](NC(=O)[C@H](C)N)CSSC[C@@H](C(=O)NCC(=O)NCC(=O)NCC(=O)N[C@@H](CO)C(=O)O)NC(=O)[C@H](CCC(N)=O)NC(=O)[C@@H]2CCCN2C(=O)[C@H](CO)NC(=O)[C@H](Cc2c[nH]cn2)NC(=O)[C@H](CO)NC1=O` [synthetic cyclic peptide SLSHSPQ] (H-ACSLSHSPQCGGGS-OH; disulfide 2-10), the “influence on tight junction (TEER)” value in the data set with hCMEC/D3 cells [3] is “did not reduce the tight junction”. For the same molecule, the “cytotoxicity (cell viability)” value in the data set on hCMEC/D3 cells [4] was “no cytotoxicity”.

With “FAM-labeled synthetic cyclic peptide SLSHSPQ: Cyclic ACSLSHSPQCGGGS with lysine residue added to the C-terminal and FAM bonded (not fully specified; cyclic; C-terminal lysine added; FAM label)”, the “uptake into hCMEC/D3 cells” value in the data set on hCMEC/D3 cells [5] is listed as “taken up into the cells”.

B1: vitronectin (protein, UniProt P04004 20-478, looked up)
Vitronectin: DQESCKGRCTEGFNVDKKCQCDELCSYYQSCCTDYTAECKPQVTRGDVFTMPEDEYTVYDDGEEKNNATVHEQVGGPSLTSDLQAQSKGNPEQTPVLKPEEEAPAPEVGASKPEGIDSRPETLHPGRPQPPAEEELCSGKPFDAFTDLKNGSLFAFRGQYCYELDEKAVRPGYPKLIRDVWGIEGPIDAAFTRINCQGKTYLFKGSQYWRFEDGVLDPDYPRNISDGFDGIPDNVDAALALPAHSYSGRERVYFFKGKQYWEYQFQHQPSQEECEGSSLSAVFEHFAMMQRDSWEDIFELLFWGRTSAGTRQPQFISRDWHGVPGQVDAAMAGRIYISGMAPRPSLAKKQRFRHRNRKGYRSQRGHSRGRNQNSRRPSRATWLSLFSSEESNLGANNYDDYRMDWLVPATCEPIQSVFFFSGDKYYRVNLRTRRVDTVDPPYPRSIAQYWLGCPAPGHL
notes: human vitronectin (R&D Systems, Inc.)
For the molecule B1, the “effect on permeation of the SLS-phage” value in the data set with hCMEC/D3 cells [1] (human vitronectin 20 μg/mL) was “inhibited”.
